Data as given in patent US6514946B1, “Macrolide antibiotics and treatment and prophylaxis of pasteurellosis using the same” (Zaidan Hojin Biseibutsu Kagaku Kenkyu Kai, priority 1999, dated 2003).
Values after ≈ are worked out from the molar mass of the structure shown.

Key:
[1] = test system: Past haemolytica BAPO103 S801; test: Minimum inhibition concentration (MIC), agar double dilution method; type: cell-based, Pasteurella haemolytica; conditions: Past haemolytica BAPO103 S801, strain from poultry; BHI agar
Experimental: (§1) Test 1; Minimum Inhibition Concentration (MIC)
(§2) MIC was measured, based on the standard method of Japan Society of Chemotherapy, on a BHI agar medium (Brain heart-infusion agar, made by Difco Laboratories Inc.(USA)) with respect to Pasteurella and on a Mueller hinton agar medium (Mueller hinton agar, made by Difco, Laboratories Inc.(USA)) with respect to the other test bacteria in both cases according to the double dilution method.

[2] = test system: Past haemolytica BBPO102 N811; test: as above; type: cell-based, Pasteurella haemolytica; conditions: Past haemolytica BBPO102 N811, strain from cattle; BHI agar
Experimental: as §1, §2

[3] = test system: P. haemolytica 63-39; test: Sensitivity (MIC), agar plate dilution method; conditions: P. haemolytica 63-39; agar plate dilution, 10^6 CFU/ml
[4] = test system: bovine bacterial pneumonia (Mycoplasma, Ureaplasma and Pasteurella); test: Clinical test against bovine bacterial pneumonia; type: in vivo, cattle; parameters: Average clinical score: scale not given here
From the text: Test 5: Clinical Test Against Bovine Bacterial Pneumonia
In this test, each drug was subcutaneously administered to cattle suffering from bacterial pneumonia (infectious diseases with Mycoplasma, Ureaplasma and Pasteurella), respectively, and the clinical effect of P-MT was compared with those of tilmicosin and C-9.
Tests are made on 17 case of one to two-month-old Holstein cattle (weight 56 to 101 kg) suffering from bacterial pneumonia caused by single or mixed infection of Pasteurella, Mycoplasma, Ureaplasma and Haemophilus (6 animals for each of P-MT and C-9 and 5 animals for tilmicosin). The drug was subcutaneously administered to the animals once a day in an amount of 10 mg/kg.
Three calves showing a similar degree of symptoms at the start of the test were arranged in one group. Each subject of the same group was respectively tested with one of the above three compounds. Ailing calves were successively grouped when being available.
Clinical findings, based on the daily observation from the time of the administration through the 5th day of the trial, were scored on each item according to the criteria in the table below. The clinical efficacy of the compounds was judged on the 5th day.
As to judgment based on the clinical symptoms, cases which could be judged among each group were classified into remarkably effective (85 to 100), effective (70 to under 85), a little effective (50 to under 70) and infective (under 50) according to the following improvement rate by clinical scores, and after summing up, the following effective rate was calculated, the difference in the effective rate among the groups was determined using a statistical method, and thus effectivity was judged. [formula]

[5] = test system: Past. multocida BOPO305 M-17; test: Minimum inhibition concentration (MIC), agar double dilution method; type: cell-based, Pasteurella multocida; conditions: Past. multocida BOPO305 M-17, strain from a sheep; BHI agar
Experimental: as §1, §2

[6] = test system: Past. multocida BSPO302 No. 6; test: as above; type: cell-based, Pasteurella multocida; conditions: Past. multocida BSPO302 No. 6, strain from a pig; BHI agar
Experimental: as §1, §2

[7] = test system: S. aureus Smith (virulent strain); test: microbe, parasite or virus in culture; type: cell-based, Staphylococcus aureus; conditions: S. aureus Smith (virulent strain); Mueller hinton agar
Experimental: as §1, §2

[8] = test system: S. aureus FDA209P; test: Minimum inhibition concentration (MIC), agar double dilution method; type: cell-based, Staphylococcus aureus; conditions: Mueller hinton agar
Experimental: as §1, §2

[9] = test system: P. haemolytica 63-39 intraperitoneally infected mice; test: Antiinfective test on infected mice
[10] = test system: P. haemolytica; test: Bacteria separation test from nasal cavity swab; type: in vivo, cattle
[11] = test system: M. bovis; type: in vivo, cattle; conditions: nasal cavity swab, before administration (baseline)
[12] = test system: E. coli K-12 R-5; test: Minimum inhibition concentration (MIC), agar double dilution method; type: cell-based, Escherichia coli; conditions: Mueller hinton agar
Experimental: as §1, §2

[13] = test system: P. multocida; test: Bacteria separation test from nasal cavity swab; type: in vivo, cattle
[14] = test system: Shigella dysenteriae JS11910; test: Minimum inhibition concentration (MIC), agar double dilution method; type: cell-based; conditions: Shigella dysenteriae JS11910; Mueller hinton agar
Experimental: as §1, §2

[15] = test system: Klebsiella pneumoniae PCI602; test: as above; type: cell-based; conditions: Mueller hinton agar
Experimental: as §1, §2

[16] = test system: Bacillus subtilis NRRL B-558; test: as above; type: cell-based; conditions: Bacillus subtilis NRRL B-558; Mueller hinton agar
Experimental: as §1, §2

[17] = test system: Salmonella enteritidis 1891; test: as above; type: cell-based; conditions: Mueller hinton agar
Experimental: as §1, §2

[18] = test system: Escherichia coli NIHJ; test: as above; type: cell-based; conditions: Mueller hinton agar
Experimental: as §1, §2

[19] = test system: Micrococcus luteus PCI1001; test: as above; type: cell-based; conditions: Mueller hinton agar
Experimental: as §1, §2

[20] = test system: Staphylococcus aureus 193; test: as above; type: cell-based; conditions: Mueller hinton agar
Experimental: as §1, §2

[21] = test system: Serratia marcescens; test: as above; type: cell-based; conditions: Mueller hinton agar
Experimental: as §1, §2

[22] = test system: Enterobacter aerogenes ATCC13048; test: as above; type: cell-based; conditions: Mueller hinton agar
Experimental: as §1, §2

[23] = test system: Pasteurella haemolytica BBPO101 N791; test: as above; type: cell-based; conditions: Pasteurella haemolytica BBPO101 N791, strain from cattle; BHI agar
Experimental: as §1, §2

[24] = test system: Ureaplasma; test: Bacteria separation test from nasal cavity swab; type: in vivo, cattle
[25] = test system: H. somnus; test: Bacteria separation test from nasal cavity swab; type: in vivo, cattle
[26] = test system: M. bovirhinis; test: Bacteria separation test from nasal cavity swab; type: in vivo, cattle
[27] = probit method from surviving numbers after 7 days, subcutaneous
[28] = before administration (baseline)

`CC[C@H]1OC(=O)C[C@@H](O)[C@H](C)[C@@H](O[C@@H]2O[C@H](C)C(O)C(N(C)C)C2O)[C@@H](CC=O)C[C@@H](C)C(=O)/C=C/C(C)=C/[C@@H]1CN1CCCCC1` (some centres unmarked) was tested. Which MIC [1] did it give?
The MIC was 0.78 µg/mL (≈ 1.17 µM).

What about the MIC [2] of the same molecule?
The MIC was 0.78 µg/mL (≈ 1.17 µM).

What about the MIC [3] of the same molecule?
The MIC was 1.56 µg/mL (≈ 2.35 µM).

What about the Average clinical score ([4]; 1 day after completion of administration, cattle, 10 mg/kg subcutaneous) of the same molecule?
Its Average clinical score is 3.3.

What about the Average clinical score ([4]; 2 days after completion of administration) of the same molecule?
The Average clinical score was 2.5.

What about the Average clinical score ([4]; 3 days after completion of administration) of the same molecule?
Its Average clinical score is 2.0.

And the Average clinical score ([4]; 4 days after completion of administration)?
The Average clinical score was 1.8.

What about the “Effective rate (%) in clinical effect” value ([4]; (remarkably effective + effective case number)/test case number × 100) of the same molecule?
Its value is 50%.

And the “Average symptomatic improvement rate (%)” value ([4]; (score before − score after administration)/score before × 100)?
The value was 75.9%.

What about the Average clinical score ([4]; at administration (baseline), cattle, 10 mg/kg subcutaneous) of the same molecule?
Its Average clinical score is 7.5.

What about the “A little effective (%) (case number)” value ([4]; improvement rate 50 to under 70) of the same molecule?
Its value is 50 (3) % (case number).

What about the “Effective (%) (case number)” value ([4]; improvement rate 70 to under 85) of the same molecule?
The value was 33 (2) % (case number).

And the “Remarkably effective (%) (case number)” value ([4]; improvement rate 85 to 100)?
Its value is 17 (1) % (case number).

And the “Ineffective (%) (case number)” value ([4]; improvement rate under 50)?
The value was 0 (0) % (case number).

And the MIC [5]?
Its MIC is 0.39 µg/mL (≈ 0.587 µM).

What about the MIC [6] of the same molecule?
Its MIC is 0.39 µg/mL (≈ 0.587 µM).

What about the MIC [7] of the same molecule?
Its MIC is 0.39 µg/mL (≈ 0.587 µM).

What about the MIC [8] of the same molecule?
Its MIC is 0.20 µg/mL (≈ 0.301 µM).

And the “Surviving number after 7 days/test number” value ([9]; dose 1 mg/kg subcutaneous one hour after infection)?
The value was 0/10.

What about the “Surviving number after 7 days/test number” value ([9]; dose 5 mg/kg subcutaneous one hour after infection) of the same molecule?
Its value is 1/10.

And the “Surviving number after 7 days/test number” value ([9]; dose 10 mg/kg subcutaneous one hour after infection)?
Its value is 3/10.

And the “Surviving number after 7 days/test number” value ([9]; dose 20 mg/kg subcutaneous one hour after infection)?
Its value is 10/10.

And the “Surviving number after 7 days/test number” value ([9]; dose 30 mg/kg subcutaneous one hour after infection)?
Its value is 10/10.

And the “ED50 (95% confidence limit)” value [9, 27]?
The value was 10.3 mg/kg (7.7-13.4).

And the ED90 [9, 27]?
The ED90 was 18.3 mg/kg.

And the “Separation rate (%) at completion (number of animal)” value (from here on “Separation rate (%) at completion”) ([10]; at completion)?
Its value is 17 (1/6) % (number of animal).

And the “Separation rate (%) before administration (number of animal)” value [10, 28]?
Its value is 17 (1/6) % (number of animal).

And the “Separation rate (%) before administration (number of animal)” value [11]?
Its value is 33 (2/6) % (number of animal).

And the MIC [12]?
Its MIC is >100 µg/mL.

What about the “Separation rate (%) at completion” value ([13]; at completion) of the same molecule?
The value was 50 (3/6) % (number of animal).

What about the “Separation rate (%) before administration (number of animal)” value [13, 28] of the same molecule?
Its value is 100 (6/6) % (number of animal).

And the MIC [14]?
Its MIC is 3.13 µg/mL (≈ 4.71 µM).

What about the MIC [15] of the same molecule?
Its MIC is 0.78 µg/mL (≈ 1.17 µM).

What about the MIC [16] of the same molecule?
Its MIC is 0.39 µg/mL (≈ 0.587 µM).

What about the MIC [17] of the same molecule?
The MIC was 0.78 µg/mL (≈ 1.17 µM).

What about the MIC [18] of the same molecule?
The MIC was 0.78 µg/mL (≈ 1.17 µM).

And the MIC [19]?
Its MIC is 0.10 µg/mL (≈ 0.15 µM).

And the MIC [20]?
The MIC was 0.20 µg/mL (≈ 0.301 µM).

And the MIC [21]?
Its MIC is 6.25 µg/mL (≈ 9.4 µM).

And the MIC [22]?
Its MIC is 6.25 µg/mL (≈ 9.4 µM).

And the MIC [23]?
Its MIC is 0.78 µg/mL (≈ 1.17 µM).

And the “Separation rate (%) at completion” value ([24]; at completion)?
The value was 33 (2/6) % (number of animal).

What about the “Separation rate (%) before administration (number of animal)” value [24, 28] of the same molecule?
Its value is 100 (6/6) % (number of animal).

And the “Separation rate (%) at completion” value ([25]; at completion)?
The value was 0 (0/6) % (number of animal).

And the “Separation rate (%) before administration (number of animal)” value [25, 28]?
The value was 0 (0/6) % (number of animal).

What about the “Separation rate (%) at completion” value ([26]; at completion) of the same molecule?
Its value is 33 (2/6) % (number of animal).

What about the “Separation rate (%) before administration (number of animal)” value [26, 28] of the same molecule?
The value was 67 (4/6) % (number of animal).
